Source: US20250089720A1, “FUNGICIDAL MIXTURES COMPRISING COMBINATION CONTAINING PHTHALIMIDE” (Adama Makhteshim Ltd., priority 2022, published 2025)

Experiments:
[1] = test system: Septoria Tritici Blotch (STB) (Zymoseptoria tritici); assay: glasshouse fungicidal efficacy against Septoria Tritici Blotch on winter wheat; details: Abbott's transformation
Description: The study design was a randomized complete block with 4 replicates.
The treatments were applied in accordance with Table 14, and on the day after application, artificial inoculation of the target was performed by spraying the inoculum solution at the concentration of 1×10^6 cfu/ml on the leaves. The compositions were diluted in a water volume equivalent to 400 L/ha.
Analysis of Variance (ANOVA) and a Bartlett test to assume the homogeneity of the treatment variances were performed on each assessment. Data were analyzed using ANOVA.
Evaluations were performed on incidence and severity of Septoria on leaves and transformed into percentage of disease control using the Abbott's transformation.

[2] = test system: Ramularia (Ramularia collo-cygni) in barley; assay: fungicidal activity toward Ramularia in barley, protected conditions; assay type: in vivo
Source text: The following fungicides and combination of fungicides are applied to ramularia in barley. The observation was made 10 days after application. The results are shown below: The following fungicides and combination of fungicides are applied to ramularia in barley. The observation was made 24 days after application.

`O=C1c2ccccc2C(=O)N1SC(Cl)(Cl)Cl` [Folpet, folpet] was tested, and the “Disease control on severity on leaves” value ([1]; Folpet 500 g AI/ha) was 41.6%, the “Observed Efficacy” value ([2]; Folpet 175 g a.i./ha, 10 days after application) was 25.10% and the “Observed Efficacy” value ([2]; Folpet 175 g a.i./ha, 24 days after application) was 21.60%. For the same compound, the “Observed Efficacy” value ([2]; Folpet 300 g a.i./ha, 10 days after application) was 61.10%, the “Observed Efficacy” value ([2]; Folpet 300 g a.i./ha, 24 days after application) was 31.00% and the “Observed Efficacy” value ([2]; Folpet 400 g a.i./ha, 10 days after application) was 64.80%. The “Observed Efficacy” value ([2]; Folpet 400 g a.i./ha, 24 days after application) was 49.80%.

In the case of `CC(O)(Cn1cncn1)c1ccc(Oc2ccc(Cl)cc2)cc1C(F)(F)F` (stereo not drawn) [Mefentrifluconazole], the “Disease control on severity on leaves” value ([1]; Mefentrifluconazole 100 g AI/ha) is reported as 49.9%.

`Cc1ccc(S(=O)(=O)n2cc(F)c(=N)n(C)c2=O)cc1` [ADF-16] was tested, and the “Observed Efficacy” value ([2]; ADF-16 25 g a.i./ha, 10 days after application) was 45.70%, the “Observed Efficacy” value ([2]; ADF-16 25 g a.i./ha, 24 days after application) was 44.50% and the “Observed Efficacy” value ([2]; ADF-16 35 g a.i./ha, 10 days after application) was 55.00%. For the same compound, the “Observed Efficacy” value ([2]; ADF-16 35 g a.i./ha, 24 days after application) was 45.60%.
